What was measured:
[1] = Cytotoxicity against BALB/C Mus musculus (mouse) lymph node cells after 24 hr by MTT assay; format: cell-based
[2] = Immunosuppressive activity in BALB/C Mus musculus (mouse) lymph node cells assessed as inhibition of conA-induced proliferation incubated at 24 hr post conA-challenge measured after 72 hr by MTT assay; format: functional
[3] = Selectivity index, ratio of CC50 for BALB/C Mus musculus (mouse) lymph node cells to IC50 for conA-induced BALB/C lymph node cells; format: functional
[4] = target: Phosphatidylinositol 4,5-bisphosphate 3-kinase catalytic subunit gamma isoform (Homo sapiens, UniProt P48736); experiment: Inhibition of PI3Kgamma (unknown origin) using [33gammaP]ATP and phosphotidylinositol as substrate by scintillation proximity assay
Phosphatidylinositol 4,5-bisphosphate 3-kinase catalytic subunit gamma isoform, sequence (P48736 whole entry, canonical isoform): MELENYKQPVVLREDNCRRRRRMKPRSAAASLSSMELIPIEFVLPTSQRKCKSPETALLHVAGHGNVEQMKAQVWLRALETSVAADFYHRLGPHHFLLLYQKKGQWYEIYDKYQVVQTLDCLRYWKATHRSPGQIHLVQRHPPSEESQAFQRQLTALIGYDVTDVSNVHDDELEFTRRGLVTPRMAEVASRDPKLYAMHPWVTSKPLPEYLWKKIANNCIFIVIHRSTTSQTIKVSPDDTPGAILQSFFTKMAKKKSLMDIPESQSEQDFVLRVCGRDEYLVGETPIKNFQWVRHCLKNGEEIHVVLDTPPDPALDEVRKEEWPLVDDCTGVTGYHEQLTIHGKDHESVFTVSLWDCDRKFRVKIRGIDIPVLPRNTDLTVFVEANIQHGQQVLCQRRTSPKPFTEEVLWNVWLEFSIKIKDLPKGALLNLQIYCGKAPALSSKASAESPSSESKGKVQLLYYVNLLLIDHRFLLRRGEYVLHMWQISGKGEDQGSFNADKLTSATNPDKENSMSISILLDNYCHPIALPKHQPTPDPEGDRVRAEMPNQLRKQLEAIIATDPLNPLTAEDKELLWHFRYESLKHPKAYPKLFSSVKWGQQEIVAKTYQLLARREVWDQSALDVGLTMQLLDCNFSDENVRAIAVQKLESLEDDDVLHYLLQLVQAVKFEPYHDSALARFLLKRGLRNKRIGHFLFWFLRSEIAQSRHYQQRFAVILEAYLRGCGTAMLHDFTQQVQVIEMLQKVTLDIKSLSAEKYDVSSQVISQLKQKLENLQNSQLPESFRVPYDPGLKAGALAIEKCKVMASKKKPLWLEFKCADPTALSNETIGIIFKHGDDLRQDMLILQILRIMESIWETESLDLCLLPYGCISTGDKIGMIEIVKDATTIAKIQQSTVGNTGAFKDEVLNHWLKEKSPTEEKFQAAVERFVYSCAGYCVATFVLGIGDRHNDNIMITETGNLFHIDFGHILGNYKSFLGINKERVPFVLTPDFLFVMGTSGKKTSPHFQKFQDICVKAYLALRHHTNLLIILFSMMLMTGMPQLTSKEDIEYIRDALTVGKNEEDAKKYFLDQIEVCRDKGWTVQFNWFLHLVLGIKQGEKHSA

[5] = target: Phosphatidylinositol 4,5-bisphosphate 3-kinase catalytic subunit gamma isoform (Mus musculus) (UniProt Q9JHG7); experiment: Inhibition of PI3Kgamma-mediated AKT Ser473 phosphorylation in ConA-induced BALB/C Mus musculus (mouse) lymph node cells after 24 hr by Western blot analysis
Phosphatidylinositol 4,5-bisphosphate 3-kinase catalytic subunit gamma isoform (Mus musculus), sequence (Q9JHG7 whole entry, looked up, canonical isoform): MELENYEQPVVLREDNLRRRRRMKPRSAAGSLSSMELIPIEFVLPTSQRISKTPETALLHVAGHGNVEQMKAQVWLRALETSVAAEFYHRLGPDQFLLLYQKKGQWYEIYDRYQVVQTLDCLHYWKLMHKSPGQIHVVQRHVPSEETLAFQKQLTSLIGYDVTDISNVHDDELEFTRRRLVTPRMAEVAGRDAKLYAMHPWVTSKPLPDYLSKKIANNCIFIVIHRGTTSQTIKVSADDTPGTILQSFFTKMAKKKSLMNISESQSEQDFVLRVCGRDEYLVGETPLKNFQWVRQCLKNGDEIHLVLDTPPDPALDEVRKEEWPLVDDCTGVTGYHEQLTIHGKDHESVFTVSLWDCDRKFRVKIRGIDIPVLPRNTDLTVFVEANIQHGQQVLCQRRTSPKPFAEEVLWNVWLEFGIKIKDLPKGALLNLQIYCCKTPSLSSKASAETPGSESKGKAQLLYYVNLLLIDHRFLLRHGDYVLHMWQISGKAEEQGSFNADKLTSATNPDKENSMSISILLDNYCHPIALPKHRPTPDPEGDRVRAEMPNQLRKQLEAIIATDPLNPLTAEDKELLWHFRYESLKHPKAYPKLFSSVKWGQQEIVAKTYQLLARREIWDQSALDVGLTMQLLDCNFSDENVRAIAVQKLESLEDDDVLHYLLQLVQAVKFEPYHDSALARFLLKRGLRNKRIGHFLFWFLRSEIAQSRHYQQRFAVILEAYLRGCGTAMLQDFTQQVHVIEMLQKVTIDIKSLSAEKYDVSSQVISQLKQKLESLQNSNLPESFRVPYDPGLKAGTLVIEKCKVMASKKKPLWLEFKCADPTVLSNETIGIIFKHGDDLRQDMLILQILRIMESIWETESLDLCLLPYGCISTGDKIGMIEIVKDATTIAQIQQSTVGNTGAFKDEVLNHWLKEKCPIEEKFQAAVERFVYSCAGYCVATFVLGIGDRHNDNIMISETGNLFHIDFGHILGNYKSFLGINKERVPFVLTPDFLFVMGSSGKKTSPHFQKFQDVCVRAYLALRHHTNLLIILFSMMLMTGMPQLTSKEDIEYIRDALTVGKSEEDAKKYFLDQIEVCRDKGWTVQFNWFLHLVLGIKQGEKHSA

[6] = species: Mus musculus; experiment: Induction of apoptosis in ConA-induced BALB/C Mus musculus (mouse) lymph node cells assessed as caspase3 activation after 24 hr by Western blot analysis; format: functional
[7] = species: Mus musculus; experiment: Induction of apoptosis in ConA-induced BALB/C Mus musculus (mouse) lymph node cells after 24 hr by AnnexinV-FITC based flow cytometric analysis; format: functional
[8] = Ratio of CsA CC50 to compound CC50 for BALB/C Mus musculus (mouse) lymph node cells; format: ADME

IC50 [4] [µM]	inhibition [5]	SMILES	CC50 at 24 h [1] [µM]	IC50 [2] [µM]	Ratio CC50/IC50 [3]	Activity [6]	Activity [7]	selectivity ratio [8]
		Cc1ccc(C(=O)N/N=C/c2ccccc2Cl)c(O)c1	125	19.2	6.51			
		COc1cccc(/C=N/NC(=O)c2ccc(C)cc2O)c1	672	20.6	32.64			
2.6		Cc1ccc(C(=O)N/N=C/c2cc(Br)ccc2O)c(O)c1	1500	1.09	1371.95			
		COc1ccc(/C=N/NC(=O)c2ccc(C)cc2O)cc1	723	> 100	<7.23			
7.12		Cc1ccc(C(=O)N/N=C/c2cc(Br)cc(Br)c2O)c(O)c1	979	2.02	484.63			
		Cc1ccc(C(=O)N/N=C/c2ccccc2)c(O)c1	578	53.9	10.74			
		Cc1ccc(C(=O)N/N=C/c2ccc(F)cc2)c(O)c1	568	26.7	21.26			
3.69		Cc1ccc(C(=O)N/N=C/c2cc(Cl)ccc2O)c(O)c1	560	1.29	433.84			
2.17	Dose-dependent effect	Cc1ccc(C(=O)N/N=C/c2ccccc2O)c(O)c1	761	1.02	745.65	Dose-dependent effect	Dose-dependent effect	50
		Cc1ccc(C(=O)N/N=C/c2ccc(Cl)cc2Cl)c(O)c1	291	9.78	29.79			
		Cc1ccc(C(=O)N/N=C/c2ccccc2[N+](=O)[O-])c(O)c1	644	> 100	<6.44			
		Cc1ccc(C(=O)N/N=C/c2ccc(Cl)cc2)c(O)c1	116	12.3	9.45			
4.81		Cc1ccc(C(=O)N/N=C/c2cc(Cl)cc(Cl)c2O)c(O)c1	708	1.51	468.72		Dose-dependent effect	
		Cc1ccc(C(=O)N/N=C/c2cccc(Cl)c2)c(O)c1	636	24.4	30.89			
		Cc1ccc(C(=O)N/N=C/c2cccc(F)c2)c(O)c1	166	31.2	3.72			
		Cc1ccc(C(=O)N/N=C/c2ccc(N(C)C)cc2)c(O)c1	732	> 100	<7.32			
		Cc1ccc(C(=O)N/N=C/c2cccc(Br)c2)c(O)c1	113	28.3	4.01			
		Cc1ccc(C(=O)N/N=C/c2ccc([N+](=O)[O-])cc2)c(O)c1	734	24.3	30.23			
		Cc1ccc(C(=O)N/N=C/c2ccccc2F)c(O)c1	362	42.1	8.61			

From ChEMBL document CHEMBL3044666, “Synthesis, biological evaluation and molecular modeling studies of Schiff bases derived from 4-methylsalicylic acid as potential immunosuppressive agents” (Med Chem Res, 2013)
